The source of these data is patent US20260306500A1, “METHOD OF INHIBITING ADENOSINE TRIPHOSPHATE SECRETION, METHOD OF INHIBITING HEPATIC STELLATE CELL ACTIVATION, METHOD OF DEACTIVATING HEPATIC STELLATE CELL, METHOD OF TREATING HEPATIC FIBROSIS, METHOD OF TREATING NON-ALCOHOLIC STEATOHEPATITIS, AND METHOD OF TREATING PSORIASIS” (Kurume University, priority 2023, published 2026).

The test system of test [1] is chromaffin granule membrane. The test is described as follows: ATP transport (uptake of radiolabeled ATP) in chromaffin granule membrane vesicles. The following applies: role: inhibitor, 1 mM 3H-ATP. Format: biochemical, cattle. As for the experimental part:
Chromaffin granule membranes were prepared from adrenal glands collected from slaughtered cattle according to Reference A (Nathan Nelson et al., 1988, Chromaffin Granule Proton Pump, Methods in Enzymology, 157, 619-633). Chromaffin granule membranes prepared by sucrose density gradient centrifugation were suspended in 2 ml of SME buffer (20 mM MOPS-tris (pH 7.0), 0.3 M sucrose, 5 mM EDTA, 10 μg/ml leupeptin, and 10 μg/ml pepstatin)+25% glycerol, and the resulting suspension was aliquoted and stored at −80° C. Under these conditions, the ATP transport activity, the V-ATPase activity, and the catecholamine transport activity remain fully active for at least one year.
An ATP transport inhibition experiment for the chromaffin granule membrane was carried out according to Reference B (Yoshinori Moriyama et al., 2022, Is the vesicular nucleotide transporter a molecular target of eicosapentaenoic acid?, Frontiers in Pharmacology, 103389). About 20 μg of chromaffin granule membranes were added to 0.5 ml of measurement buffer (20 mM MOPS-tris (pH 7.0), 0.3 M sucrose, 5 mM potassium chloride, 5 mM magnesium acetate, 5 mM creatine phosphate, 10 units of creatine kinase, and 1 mM 3[H]-ATP [15 KBq/assay]), followed by incubation at 30° C. for 1 hour. Through a Millipore MCE membrane filter with a pore size […], 0.2 ml of the reaction liquid was filtered by suction. Thereafter, the filter was washed with 10 ml of 20 mM MOPS-tris (pH 7.0), 0.3 M sucrose, 5 mM potassium chloride, and 5 mM magnesium acetate, and dissolved in 10 ml of Clear-sol II (manufactured by Nacalai Tesque, Inc.). The radioactivity was then measured using a liquid scintillation counter (N=3).
The reaction was initiated by adding 50 mM ^3[H]-ATP to a final concentration of 1 mM. The 50 mM ^3[H]-ATP was prepared by mixing an ATP-tris solution (manufactured by Sigma-Aldrich) with [2,8-^3H]adenosine triphosphate tetrasodium salt (26.0 Ci/mmol) (manufactured by New England Nuclear). PEP was used as a test reagent, and pyruvic acid was used as a negative control. Five minutes before the addition of ATP, PEP or pyruvic acid, as a solution in 20 mM MOPS-tris (pH 7.0), 0.3 M sucrose, 5 mM potassium chloride, and 5 mM magnesium acetate, was added to the measurement liquid to a final PEP concentration of 0.02, 0.05, 0.1, 0.2, 0.4, or 1 mM, or to a final pyruvic acid concentration of 0.5 or 1 mM.
Chromaffin granule membrane vesicles were prepared in the same manner as in Example 5, and uptake of radiolabeled ATP into the vesicles was measured. Transport activity of catecholamine (dopamine) and ATP-dependent proton transport by V-ATPase were also measured in the same manner as in Example 5.

For another test, the system named is LX-2 cells. Briefly: ATP secretion from LX-2 cells. Format: cell-based, human. On the procedure:
Cells of the immortalized human hepatic stellate cell line LX-2 (manufactured by Merck) was cultured in Dulbecco's modified Eagle's medium (DMEM, 4500 mg/l Glucose, D5796, manufactured by Sigma-Aldrich) supplemented with inactivated 2% fetal bovine serum (FBS), 10 IU/ml penicillin, and 10 IU/ml streptomycin in a T25 or T75 flask at 37° C. in 5% CO2.
LX-2 cells (2×10^6 cells per well) were seeded in a collagen-coated 6-well culture dish containing Dulbecco's modified Eagle's medium (manufactured by Sigma-Aldrich) supplemented with 10 IU/ml penicillin, […] 2% fetal bovine serum, and cultured in 5% CO2 at 37° C. After 3 days, the LX-2 cells were washed twice and preincubated in Krebs-Ringer buffer (10 mM HEPES-Tris, pH 7.4, 128 mM NaCl, 1.9 mM KCl, 1.2 mM KH2PO4, 1.3 mM MgSO4, 26 mM NaHCO3, 2.4 mM CaCl2, 10 mM glucose, 0.2% (w/v) bovine serum albumin) with or without 10 μM clodronate. The LX-2 cells were then stimulated with Krebs-Ringer buffer supplemented with ionomycin (manufactured by Cayman) regardless of whether clodronate was present or not. For the stimulation, 1 mM EGTA (manufactured by Dojindo) or 10 μM serotonin (5-HT, manufactured by Sigma-Aldrich) was used. The ATP concentration in the culture supernatant was measured in the same manner as in Example 6.
For an siRNA experiment, a TriFECTa (trademark) RNAi Kit (manufactured by Integrated DNA Technologies) was used. A scramble RNA (scRNA) as a control siRNA, or a VNUT-specific siRNA, was incubated with Lipofectamine 3000 reagent (manufactured by Invitrogen) in OptiMEM reduced-serum medium (#31985070, manufactured by Gibco) at room temperature for 15 minutes, and then added directly to the cultured cells. The LX-2 cells as the transfection mixture were plated, and then cultured for 48 hours. The base sequences of VNUT siRNA forward and VNUT siRNA reverse, used for the above kit, are shown in SEQ ID NOs: 1 and 2, respectively. A positive control for an endogenous gene (#51-01-08-02) and a negative control (#51-01-14-03) were used.

A further test relates to mouse auricle. Briefly: Imiquimod-induced psoriasis model, comparison with an anti-TNFα antibody (Example 19). Format: in vivo. The following applies: imeglimin 40 mg/kg oral daily or infliximab 100 μg/mouse i.v. Days 1, 3, 5. As for the experimental part: The dorsal hair of mice was shaved and depilated (Day 0). To each of the left auricle and the depilated back of each mouse, 62.5 mg of 5% imiquimod cream (Beselna Cream 5%) was applied once daily a total of seven times (Days 1 to 7) in accordance with Example 18, to induce imiquimod-induced psoriasis (IMQ group). In the IMQ+IMG group, mice received oral administration of imeglimin (40 mg/kg) once daily (Day 1 to 7) after the imiquimod application. […] Thickness of the auricle was measured, and the degrees of erythema, desquamation, and infiltration in the affected area were rated on Days 1, 3, 5, 7, and 8 according to the PASI scoring of the DermNET Dermatology Resource (none: 0, mild: 1, moderate: 2, severe: 3, and very severe: 4). The resulting values were used to calculate the PASI score.
Further, for an auricle excised on Day 8, immunohistochemical staining was performed in the same manner as in Example 18, and auricular sections were imaged using a fluorescence microscope (BZ-X710; manufactured by Keyence Corporation).

In test [2] the test system is human epidermal keratinocytes. Briefly: ATP secretion from human epidermal keratinocytes promoted by ionomycin. Format: cell-based. The following applies: 5 μM ionomycin as stimulant, keratinocytes. On the procedure: Human epidermal keratinocytes (Cryopreserved HEK, Lot 1758, Cell Applications Inc.) were cultured using an Epivita Keratinocyte Growth Medium Kit according to the manufacturer's instructions. The procedure was as follows. A supplement medium was added to a hydrocortisone-containing basal medium included in the medium preparation kit to prepare a complete medium. The medium in the dish was removed by aspiration. The cells were washed with 5 ml of BSS (Gbco), and then the BSS was removed by aspiration. After addition of 5 to 6 ml of trypsin/EDTA solution (Gbco), the dish was incubated at 37° C. for 2 minutes. After addition of 5 ml of trypsin neutralization solution, the resulting cell suspension was transferred into two 15-ml Falcon tubes, and centrifuged at 200×g for 5 minutes. The supernatant was removed by aspiration, and the pelleted cell cluster was suspended in 2 ml of the medium at 4.5×10^5 cells/ml. An aliquot of the resulting cell suspension was cryopreserved, while another aliquot was cultured and subjected to measurement.
ATP secretion by human epidermal keratinocytes (hereinafter referred to as “keratinocytes”) was measured. Regarding control solutions, Krebs-Ringer HEPES supplemented with 0.2% BSA and 25 mM glucose (hereinafter also referred to as “Krebs/Iono(−)”) was used as a negative control, and a solution prepared by adding 5 μM ionomycin to this solution (hereinafter also referred to as “Krebs/Iono(+)”) was used as a positive control for ATP secretion. Ionomycin is a Ca^2+ ionophore. Addition of ionomycin to cells is known to promote influx of extracellular Ca^2+ into the cells to increase the intracellular Ca^2+ concentration, resulting in enhancement of ATP secretion. Test solutions were prepared by adding clodronate to Krebs/Iono(−) or Krebs/Iono(+) to a final concentration of 0.1 μM (hereinafter also referred to as “Clo/Iono(−)” or “Clo/Iono(+)”, respectively) (N=3).
Keratinocytes were cultured at 2.5×10^4 cells/well in a 24-well plate at 37° C. in 5% CO2 for 4 days. The medium was removed by aspiration, replaced with Krebs/Iono(−) or Clo/Iono(−), and incubated at 37° C. for 6 hours. These solutions were then removed by aspiration, and the content of each well incubated with Krebs/Iono(−) was replaced with 300 μl of a control solution (Krebs/Iono(−) or Krebs/Iono(+)), while the content of each well incubated with Clo/Iono(−) was replaced with 300 μl of a test solution (Clo/Iono(−) or Clo/Iono(+)). After further incubation at 37° C. for 20 minutes, 200 μl of the supernatant was collected. The collected supernatant was immediately treated on a heat block at 95° C. for 10 minutes, to inactivate ectonucleotidase. ATP in the supernatant was quantified using a Dojindo ATP assay kit−Luminescence (manufactured by Dojindo Laboratories).
Keratinocytes were cultured in the same manner as in Example 1, and ATP secretion from the keratinocytes was measured. Krebs/Iono(−), or a solution prepared by adding 10 μM imeglimin, 0.1 μM eicosapentaenoic acid (EPA), 1 μM EPA, or 10 μM clodronate to Krebs/Iono(−) was used (N=4).
After culturing keratinocytes, the medium was removed by aspiration, and replaced with Krebs/Iono(−), or Krebs/Iono(−) supplemented with 10 μM imeglimin, 0.1 μM EPA, 1 μM EPA, or 10 μM clodronate, followed by incubation for 6 hours. Subsequently, the solution was replaced with either a control solution (Krebs/Iono(−) or Krebs/Iono(+)) or a test solution (Krebs/Iono(+) supplemented with 10 μM imeglimin, 0.1 μM EPA, 1 μM EPA, or 10 μM clodronate), followed by incubation at 37° C. for 20 minutes and then collection of 200 μl of the supernatant. The collected supernatant was immediately treated on a heat block at 95° C. for 10 minutes to inactivate ectonucleotidase. ATP in the supernatant was quantified using a Dojindo ATP assay kit—Luminescence (manufactured by Dojindo Laboratories). […]

Take `CC(=O)C(=O)O` [pyruvic acid]: the “inhibitory activity on ATP transport” value in test [1] is “no inhibitory activity was found”. Also, the “inhibition of ATP transport” value in test [1] (up to 1 mM pyruvic acid) was “did not inhibit ATP transport”.

`O=C[C@H](O)[C@@H](O)[C@H](O)[C@H](O)COP(=O)(O)O` [glucose-6-phosphate]: the “inhibitory activity on ATP transport” value in test [1] is “no inhibitory activity was found”.

Consider `O=C(O)CN(CCOCCOCCN(CC(=O)O)CC(=O)O)CC(=O)O` [EGTA], for which, in the test on LX-2 cells (1 mM EGTA, chelating of Ca2+, N=6 (FIG. 21)), the “ionomycin-induced ATP secretion” value is given as “strongly inhibited”.

Consider `NCCc1c[nH]c2ccc(O)cc12` [5-HT, serotonin], for which the “ATP secretion from the LX-2 cells” value in the test on LX-2 cells (10 μM serotonin (5-HT) (FIG. 25)) is “promoted ATP secretion”.

Regarding `CC(=O)SCCNC(=O)CCNC(=O)[C@H](O)C(C)(C)COP(=O)(O)OP(=O)(O)OC[C@H]1O[C@@H](n2cnc3c(N)ncnc32)[C@H](O)[C@@H]1OP(=O)(O)O` [acetyl-CoA], in test [1], the “inhibitory activity on ATP transport” value is “no inhibitory activity was found”.

As for “infliximab: infliximab (manufactured by Nichi-Iko Pharmaceutical Co., Ltd.), an anti-TNFα antibody as an existing drug”, the “erythema (excepted from the symptoms reduced)” value in the test on mouse auricle (N=5 (FIG. 38)) is recorded as “except erythema”. In the test with mouse auricle (N=5 (FIGS. 37-41)), the “typical psoriatic symptoms induced by imiquimod, except erythema (thickness, desquamation, infiltration, PASI score)” value is “reduced”.

Consider `C[C@H](CCC(=O)O)C[C@H](C)C[C@H](C)C(=O)/C=C(\O)[C@H](C)C[C@H](C)C/C=C/[C@@H](C)[C@@H](O)[C@@H](C)[C@@H](O)C[C@@H]1CC[C@@](C)([C@H]2CC[C@@](C)([C@@H](C)O)O2)O1` [ionomycin], for which the ATP secretion result in test [2] was “promotes ATP secretion”. The “secretion of ATP by the LX-2 cells over time” value in the test with LX-2 cells (ionomycin, N=3 (FIG. 20)) is given as “increased secretion of ATP”.

With `C[C@H](O)C(=O)O` [L-lactic acid], the “inhibitory activity on ATP transport” value in test [1] is “no inhibitory activity was found”.

For `O=C(O)CC(=O)C(=O)O` [oxaloacetic acid], in test [1], the “inhibitory activity on ATP transport” value was “no inhibitory activity was found”.

Take `O=C(O)C[C@H](O)C(=O)O` [malic acid]: in test [1], the “inhibitory activity on ATP transport” value is reported as “no inhibitory activity was found”.

For `O=C(O)CC(O)(CC(=O)O)C(=O)O` [citric acid], the “inhibitory activity on ATP transport” value in test [1] is reported as “no inhibitory activity was found”.

On to `NC(=O)c1ccc[n+]([C@@H]2O[C@H](COP(=O)([O-])OP(=O)(O)OC[C@H]3O[C@@H](n4cnc5c(N)ncnc54)[C@H](O)[C@@H]3O)[C@@H](O)[C@H]2O)c1` [NAD+], for which the “inhibitory activity on ATP transport” value in test [1] is recorded as “no inhibitory activity was found”.

Take `O=C(CO)[C@@H](O)[C@H](O)[C@H](O)COP(=O)(O)O` [fructose-6-phosphate]: in test [1], the “inhibitory activity on ATP transport” value was “no inhibitory activity was found”.
